Results published in patent US6846933B1, “Antimycobacterial compounds and method for making the same” (priority 2000, dated 2005).
Converted amounts (≈) assume the structure as drawn. Where two headings read alike, the source gives them in different places.

Columns and labels:
[1] = system: Mycobacterium tuberculosis H37Rv (ATCC 27294); assay: TAACF MIC / primary screen vs M. tuberculosis H37Rv (MABA or BACTEC 460); assay type: cell-based; conditions: for MIC: Mycobacterium tuberculosis
[2] = system: M. tuberculosis Erdman (ATCC 35801) in monolayers of mouse bone marrow macrophages; assay: Killing of M. tuberculosis Erdman in mouse bone marrow macrophages; assay type: cell-based; conditions: Mycobacterium tuberculosis, Bone marrow macrophage, 168 h
M. avium (ATCC 25291) = assay: TAACF M. avium assay; assay type: cell-based, Mycobacterium avium; design: % Inhibition: concentration or dose not given beside the values; conditions: for % Inhibition: M. avium assay; for MIC: Mycobacterium avium
M. tuberculosis Erdman = assay: MIC vs M. tuberculosis Erdman; assay type: cell-based; conditions: Mycobacterium tuberculosis, Bactec, strain panel, read-out: MIC Erdman
M. tuberculosis EMB-R = assay: microbe, parasite or virus in culture; assay type: cell-based; conditions: Mycobacterium tuberculosis, read-out: MIC EMB-R (ug/ml)
M. tuberculosis ETA-R = assay: MIC vs ETA-R M. tuberculosis; assay type: cell-based; conditions: Mycobacterium tuberculosis, read-out: MIC ETA-R (ug/ml)
M. tuberculosis TAC-R = assay: microbe, parasite or virus in culture; assay type: cell-based; conditions: Mycobacterium tuberculosis, Bactec, strain panel
[3] = Quantitative estimate of relative lipophilicity (chloroform/water partitioning vs isoniazid); conditions: ratio chloroform:water compared to same ratio for isoniazid as standard (INH = unity)
VERO cells = assay: Cytotoxicity in VERO cells (MTT, 72 hours); assay type: cell-based; conditions: Chlorocebus sabaeus
M. tuberculosis H37Rv = assay: Minimum bactericidal concentration vs H37Rv; assay type: cell-based; conditions: Mycobacterium tuberculosis, read-out: MBC vs H37Rv (ug/ml)
M. tuberculosis RMP-R = assay: microbe, parasite or virus in culture; assay type: cell-based; conditions: Mycobacterium tuberculosis, read-out: MBC vs RMP-R (ug/ml)
M. tuberculosis INH-r = assay: microbe, parasite or virus in culture; assay type: cell-based; conditions: Mycobacterium tuberculosis, read-out: MBC vs INH-r (ug/ml)
M. kansasii swank = assay: Broth dilution MIC vs M. kansasii swank; assay type: cell-based; conditions: Mycobacterium kansasii; modified 7H10 broth, lowest concentration with no turbidity
M. avium 101 = assay: Broth dilution MIC vs M. avium 101; assay type: cell-based; conditions: Mycobacterium avium, modified 7H10 broth, lowest concentration with no turbidity
[4] = M. tuberculosis assay, Tables 4 and 5, read-out: MIC
[5] = ATCC25291, M. avium assay, Bactec, Tables 10-12, read-out: MIC
[6] = Bactec, strain panel, read-out: MIC H37Rv
[7] = ATCC25291, M. avium assay, BACTEC, Tables 2 and 3, read-out: MIC
[8] = M. tuberculosis assay, Table 13, primary screen
[9] = M. tuberculosis assay, Table 13, primary screen, read-out: MIC

SMILES: COc1ccccc1/C=N/NC(=O)c1ccncc1 [Sample ID 102871]
- MIC [1, 4]: 0.2 µg/mL (≈ 0.783 µM)
- EC90 [2]: 0.06 µg/mL (≈ 0.235 µM)
- EC99 [2]: 0.23 µg/mL

SMILES: O=C(NNC(=S)Nc1ccc(Cl)cc1)c1ccncc1 [Sample ID 126719]
- % Inhibition (M. avium (ATCC 25291); Bactec, Tables 10-12): 84%
- MIC (M. avium (ATCC 25291); ATCC25291, M. avium assay, Bactec, Tables 10-12): > 12.5 µg/mL

SMILES: O=C(NNC(=S)Nc1ccc(Br)cc1)c1ccncc1 [Sample ID 125304]
- % Inhibition (M. avium (ATCC 25291); Bactec, Tables 10-12): 15%
- MIC (M. avium (ATCC 25291); [5]): > 12.5 µg/mL

SMILES: CCOC(=O)/C(CCc1ccccc1)=N\NC(=O)c1ccncc1 [Sample ID 132358]
- MIC [1, 6]: 0.1 µg/mL (≈ 0.307 µM)
- MIC (ug/mg) ([1]; Table 1, M. tuberculosis assay, Bactec): 0.1 µg/mL (≈ 0.307 µM)
- MIC (M. tuberculosis Erdman): 0.1 µg/mL (≈ 0.307 µM)
- MIC (M. tuberculosis EMB-R): > 3.2 µg/mL
- MIC (M. tuberculosis ETA-R): 0.8 µg/mL (≈ 2.46 µM)
- MIC (M. avium (ATCC 25291); [7]): > 3.2 µg/mL

SMILES: CC(C)=CCCC(C)C/C=N/NC(=O)c1ccncc1 (centres unmarked) [Sample ID 102044]
- MIC [1, 6]: < 0.1 µg/mL
- MIC ([1]; M. tuberculosis assay, Bactec, Tables 6, 7, 8, read-out: MIC): 0.2 µg/mL (≈ 0.732 µM)
- MIC [1, 4]: 0.2 µg/mL (≈ 0.732 µM)
- EC90 [2]: 0.02 µg/mL (≈ 0.0732 µM)
- EC99 [2]: 0.08 µg/mL
- MIC (M. tuberculosis Erdman): < 0.1 µg/mL
- MIC (M. tuberculosis TAC-R): 3.13 µg/mL (≈ 11.4 µM)
- MIC (M. avium (ATCC 25291); [7]): 0.78 µg/mL (≈ 2.85 µM)

SMILES: CC(=O)N1N=C(c2ccncc2)OC1c1c(Cl)cccc1Cl (centres unmarked) [Oxadiazoline Example 4, 2-(2,6-Dichlorophenyl)-3-acetyl-5-(4-pyridyl)-1,3,4-oxadiazoline]
- Relative Lipophilicity [3]: 35,667

SMILES: CC(=O)NNC(=O)c1ccncc1
- melting point: 158 to 160 °C

SMILES: CC(=O)N1N=C(c2ccncc2)OC1(C)c1ccccc1 (centres unmarked) [Sample ID 122487]
- % Inhibition [1, 8]: 98%
- MIC [1, 9]: < 12.5 µg/mL

SMILES: COc1cc(/C=N/NC(=O)c2ccncc2)ccc1O [Sample ID 102858]
- MIC [1, 4]: 0.2 µg/mL (≈ 0.737 µM)
- EC90 [2]: 0.03 µg/mL (≈ 0.111 µM)
- EC99 [2]: 0.12 µg/mL

SMILES: O=C(N/N=C/c1ccc(Cl)c(Cl)c1)c1ccncc1 [Sample ID 122490]
- % Inhibition ([1]; M. tuberculosis assay, Alamar, Table 7): 99%
- MIC ([1]; M. tuberculosis assay, Alamar, Tables 7 and 9, read-out: MIC): < 0.2 µg/mL
- IC50 (VERO cells): > 10 µg/mL
- % Inhibition (M. avium (ATCC 25291); Bactec, Tables 10-12): 20%
- MIC (M. avium (ATCC 25291); [5]): > 12.5 µg/mL

SMILES: CCC/C(CC(=O)OCC)=N/NC(=O)c1ccncc1 [Sample ID 101702]
- MIC ([1]; M. tuberculosis assay, Alamar, Tables 7 and 9): 0.39 µg/mL (≈ 1.41 µM)
- MBC (M. tuberculosis H37Rv): ≥ 0.19 µg/mL
- MBC (M. tuberculosis RMP-R): 0.39 µg/mL (≈ 1.41 µM)
- MBC (M. tuberculosis INH-r): > 12.5 µg/mL

SMILES: CC(C)=NNC(=O)c1ccncc1 [Sample ID 102752]
- MIC [1, 4]: 0.1 µg/mL (≈ 0.564 µM)
- EC90 [2]: 0.03 µg/mL (≈ 0.169 µM)
- EC99 [2]: 0.14 µg/mL

SMILES: O=C(N/N=C/c1cccc(/C=N/NC(=O)c2ccncc2)c1)c1ccncc1 [Sample ID 102043]
- MIC [1, 4]: 0.05 µg/mL (≈ 0.134 µM)
- EC90 [2]: 0.04 µg/mL (≈ 0.107 µM)
- EC99 [2]: > 0.8 µg/mL

SMILES: O=CNNC(=O)c1ccncc1
- melting point: 94 to 96 °C

SMILES: NNC(=O)c1ccncc1 [INH, isonicotinic acid hydrazide, reference compound]
- IC50 (VERO cells): > 1000 µg/mL
- EC90 [2]: 0.21 µg/mL (≈ 1.53 µM)
- EC99 [2]: > 0.4 µg/mL
- MIC (M. kansasii swank): 1 µg/mL (≈ 7.29 µM)

SMILES: O=C(NN=C1CCCCC1)c1ccncc1 [Sample ID 102674]
- MIC [1, 4]: 0.03 µg/mL (≈ 0.138 µM)
- EC90 [2]: 0.08 µg/mL (≈ 0.368 µM)
- EC99 [2]: > 0.4 µg/mL

SMILES: CCCC(=O)NNC(=O)c1ccncc1
- melting point: 142 °C

SMILES: CC[C@H]1OC(=O)[C@H](C)[C@@H](O[C@H]2C[C@@](C)(OC)[C@@H](O)[C@H](C)O2)[C@H](C)[C@@H](O[C@@H]2O[C@H](C)C[C@H](N(C)C)[C@H]2O)[C@](C)(OC)C[C@@H](C)C(=O)[C@H](C)[C@@H](O)[C@]1(C)O [Clarithromycin, reference compound]
- MIC (M. avium (ATCC 25291); ATCC25291, reference control, read-out: MIC Clarithromycin vs. M. avium (control in Comment column)): 2 µg/mL (≈ 2.67 µM)
- MIC (M. avium 101): 2 µg/mL (≈ 2.67 µM)

SMILES: O=C(NNC(=S)Nc1ccccc1)c1ccncc1 [Sample ID 122697]
- % Inhibition [1, 8]: 79%
- MIC [1, 9]: > 12.5 µg/mL

SMILES: CCOC(=O)C/C(C)=N/NC(=O)c1ccncc1 [Sample ID 101743]
- MIC [1, 4]: 0.2 µg/mL (≈ 0.802 µM)
- EC90 [2]: 0.01 µg/mL (≈ 0.0401 µM)
- EC99 [2]: > 3.2 µg/mL
